Data taken from publication doi:10.1101/2021.12.08.471775v2 (biorxiv, 2022).

Molecular target: α4β2Rs (rat α4β2 nAChRs) (Rattus norvegicus, UniProt P09483+P12390)
Format: cell-based

Chain of α4β2Rs (rat α4β2 nAChRs) (P09483 31-630): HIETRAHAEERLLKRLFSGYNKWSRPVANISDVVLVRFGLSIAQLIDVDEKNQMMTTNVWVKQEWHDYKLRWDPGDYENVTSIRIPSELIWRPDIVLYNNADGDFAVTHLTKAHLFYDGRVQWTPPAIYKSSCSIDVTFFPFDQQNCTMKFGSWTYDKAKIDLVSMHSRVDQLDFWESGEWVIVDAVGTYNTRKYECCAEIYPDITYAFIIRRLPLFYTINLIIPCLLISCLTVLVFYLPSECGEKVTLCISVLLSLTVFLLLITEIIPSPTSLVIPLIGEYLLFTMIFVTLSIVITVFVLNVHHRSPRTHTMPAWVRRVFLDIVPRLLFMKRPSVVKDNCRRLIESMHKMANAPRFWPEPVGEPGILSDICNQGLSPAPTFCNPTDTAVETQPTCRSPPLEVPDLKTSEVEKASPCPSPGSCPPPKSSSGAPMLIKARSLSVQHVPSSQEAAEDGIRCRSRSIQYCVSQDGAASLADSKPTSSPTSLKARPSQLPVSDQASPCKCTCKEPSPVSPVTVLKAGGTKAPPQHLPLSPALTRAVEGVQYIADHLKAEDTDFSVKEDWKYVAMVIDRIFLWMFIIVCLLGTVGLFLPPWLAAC
Chain of α4β2Rs (rat α4β2 nAChRs) (P12390 25-500): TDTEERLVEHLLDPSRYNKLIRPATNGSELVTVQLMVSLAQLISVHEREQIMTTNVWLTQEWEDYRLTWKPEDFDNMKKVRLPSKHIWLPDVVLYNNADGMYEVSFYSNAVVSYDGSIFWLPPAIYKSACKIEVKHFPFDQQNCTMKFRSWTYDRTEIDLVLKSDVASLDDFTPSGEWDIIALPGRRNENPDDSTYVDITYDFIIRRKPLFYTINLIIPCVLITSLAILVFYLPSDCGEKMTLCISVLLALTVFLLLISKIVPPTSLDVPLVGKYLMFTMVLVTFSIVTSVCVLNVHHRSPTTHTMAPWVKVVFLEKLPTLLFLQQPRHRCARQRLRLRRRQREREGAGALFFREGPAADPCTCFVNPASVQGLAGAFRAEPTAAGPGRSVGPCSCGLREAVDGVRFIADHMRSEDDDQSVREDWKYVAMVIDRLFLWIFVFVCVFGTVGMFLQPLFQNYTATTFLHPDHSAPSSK

SMILES: Fc1ncccc1OC[C@@H]1C=CCN1 [Nifene]
- Ki: 0.31 nM
